Measured values from patent US8455484B2, “Selected inhibitors of protein tyrosine kinase activity” (MethylGene Inc., priority 2010, dated 2013).

How the values were obtained:
CNV progression = test: In vivo choroidal neovascularization (CNV) model; set-up: species or system Brown-Norway rats; conditions: injection into right eye on Day 3, CNV area on Day 10, vs vehicle-treated group
Source text: This test measures the capacity of compounds to inhibit CNV progression. CNV is the main cause of severe vision loss in patients suffering from age-related macular degeneration (AMD).
Male Brown-Norway rats (Japan Clea Co., Ltd.) were used in these studies.
Rats were anesthetized by intraperitoneal injection of pentobarbital, and the right pupil was dilated with 0.5% tropicamide and 0.5% phenylephrine hydrochloride. The right eye received 6 laser burns between retinal vessels using a slit lamp delivery system of Green laser Photocoagulator (Nidex Inc., Japan), and microscope slide glass with Heaton™ (AMO Inc) used as a contact lens. The laser power was 100 or 200 mW for 0.1 second and spot diameter was 100 μm. At the time of laser burn, bubble production was observed, which is an indication of rupture of Bruch's membrane which is important for CNV generation.
Rats were divided into the groups based on their body weight using SAS software (SAS institute Japan, R8.1) after laser irradiation (Day 0). After animals were anesthetized, and the right pupil dilated (as above mentioned), the right eye of the animal received the compound or vehicle by an injection (10 μL/eye) at doses of 10 or 3 nmol/eye on Day 3. The compounds were dissolved or suspended in CBS, PBS, or other adequate vehicles before injection.
On Day 10, the animals were anesthetized with ether, and high molecular weight fluorescein isothiocyanate (FITC)-dextran (SIGMA, 2×10^6 MW) was injected via a tail vein (20 mg/rat). About 30 min after FITC-dextran injection, animals were euthanized by ether or carbon dioxide, and the eyes were removed and fixed with 10% formaline neutral buffer solution. After over 1 hour of fixation, RPE-choroid-sclera flat mounts were obtained by removing cornea, lens and retina from the eyeballs. The flat mounts were mounted in 50% glycerol on a microscope slide, and the portion burned by laser was photographed using a fluorescence microscope (Nikon Corporation, excitation filter:465-495 nm, absorption filter:515-555 nm). The CNV area was obtained by measurement of hyper-fluorescence area observed on the photograph using Scion image.
The average CNV area of 6 burns was used as an individual value of CNV area, and the average CNV area of compound treated group was compared with that of the vehicle-treated group.

VEGFR2 (KDR) = biological target: T1, VEGFR2 (KDR) (Homo sapiens, UniProt P35968); test: In vitro receptor tyrosine kinase assay (VEGF receptor KDR), DELFIA; format: biochemical; conditions: recombinant GST-VEGFR2 catalytic domain, ATP 0.6 uM, enzyme 5 nM; read-out: VEGFR IC50
T1 construct: made in house; host or cells: Sf9 cells (Spodoptera frugiperda), baculovirus
Source text: This test measures the ability of compounds to inhibit the enzymatic activity of recombinant human VEGF receptor enzymatic activity.
A 1.6-kb cDNA corresponding to the catalytic domain of VEGFR2 (KDR) (Genbank accession number AF035121 amino acid 806 to 1356) is cloned into the Pst I site of the pDEST20 Gateway vector (Invitrogen) for the production of a GST-tagged version of that enzyme. This constuct is used to generate recombinant baculovirus using the Bac-to-Bac™ system according to the manucfacturer's instructions (Invitrogen).
The GST-VEGFR2806-1356 protein is expressed in Sf9 cells (Spodoptera frugiperda) upon infection with recombinant baculovirus construct. Briefly, Sf9 cells grown in suspension and maintained in serum-free medium (Sf900 II supplemented with gentamycin) at a cell density of about 2×10^6 cells/ml are infected with the above-mentioned viruses at a multiplicity of infection (MOI) of 0.1 during 72 hours at 27° C. with agitation at 120 rpm on a rotary shaker. Infected cells are harvested by centrifugation at 398 g for 15 min. Cell pellets are frozen at −80° C. until purification is performed.
All steps described in cell extraction and purification are performed at 4° C. Frozen Sf9 cell pellets infected with the GST-VEGFR2806-1356 recombinant baculovirus are thawed and gently resuspended in Buffer A (PBS pH 7.3 supplemented with 1 μg/ml pepstatin, 2 μg/ml Aprotinin and leupeptin, 50 μg/ml PMSF, 50 μg/ml TLCK and 10 μM E64 and 0.5 mM DTT) using 3 ml of buffer per gram of cells. Suspension is Dounce homogenized and 1% Triton X-100 is added to the homogenate after which it is centrifuged at 22500 g, 30 min., 4° C. The supernatant (cell extract) is used as starting material for purification of GST-VEGFR2806-1356.
The supernatant is loaded onto a GST-agarose column (Sigma) equilibrated with PBS pH 7.3. Following a four column volume (CV) wash with PBS pH 7.3+1% Triton X-100 and 4 CV wash with buffer B (50 mM Tris pH 8.0, 20% glycerol and 100 mM NaCl), bound proteins are step eluted with 5 CV of buffer B supplemented with 5 mM DTT and 15 mM glutathion. GST-VEGFR2806-1356 enriched fractions from this chromatography step are pooled based on U.V. trace i.e. fractions with high O.D.280. Final GST-VEGFR2806-1356 protein preparations concentrations are about 0.7 mg/ml with purity approximating 70%. Purified GST-VEGFR2806-1356 protein stocks are aliquoted and frozen at −80° C. prior to use in enzymatic assay.
Inhibition of VEGFR/KDR is measured in a DELFIA™ assay (Perkin Elmer). The substrate poly(Glu4, Tyr) is immobilized onto black high-binding polystyrene 96-well plates. The coated plates are washed and stored at 4° C. During the assay, the enzyme is pre-incubated with inhibitor and Mg-ATP on ice in polypropylene 96-well plates for 4 minutes, and then transferred to the coated plates. The subsequent kinase reaction takes place at 30° C. for 10-30 minutes. ATP concentrations in the assay are 0.6 uM for VEGFR/KDR (2× the Km). Enzyme concentration is 5 nM. After incubation, the kinase reactions are quenched with EDTA and the plates are washed. Phosphorylated product is detected by incubation with Europium-labeled anti-phosphotyrosine MoAb. After washing the plates, bound MoAb is detected by time-resolved fluorescence in a Gemini SpectraMax reader (Molecular Devices). Compounds are evaluated over a range of concentrations, and IC50 values (concentration of compounds giving 50% inhibition of enzymatic activity) are determined.

[1] = tested on: VEGF-induced retinal vascular permeability; test: VEGF-induced retinal vascular permeability in rabbits; format: in vivo, Dutch rabbits; conditions: intravitreal injection, human VEGF165 500 ng, 30 min after fluorescein injection, vs vehicle-treated group
Procedure: This test measured the capacity of compounds to inhibit VEGF-induced retinal vascular permeability. Vascular permeability is the cause of severe vision loss in patients suffering from age-related macular degeneration (AMD). Female Dutch rabbits (˜2 kg; Kitayama LABES CO., LTD, Nagano, Japan) were anesthetized with pentobarbital and topically with 0.4% oxybuprocaine hydrochloride. Test articles or vehicle were injected into vitreous cavity after the dilation of the pupils with 0.5% tropicamide eye drop. Recombinant human VEGF165 (500 ng; Sigma-Aldrich Co., St Louis, Mo.) was injected intravitreously 48 hr prior to the measurement of vitreous fluorescein concentration. Rabbits were anesthetized with pentobarbital and sequentially injected sodium fluorescein (2 mg/kg) via the ear vein. Pupils were dilated with 0.5% tropicamide eye drop, and ocular fluorescein levels were measured using the FM-2 Fluorotron Master (Ocumetrics, Mountain View, Calif.) 30 min after fluorescein injection. The fluorescein concentrations in vitreous were obtained at data points that are 0.25 mm apart from posterior-end along an optical axis. Vitreous fluorescence concentration was considered fluorescein leakage from retinal vasculature. The average fluorescence peaks of the test article treated groups were compared with that of the vehicle-treated group.

T1 sequence (P35968 806-1356): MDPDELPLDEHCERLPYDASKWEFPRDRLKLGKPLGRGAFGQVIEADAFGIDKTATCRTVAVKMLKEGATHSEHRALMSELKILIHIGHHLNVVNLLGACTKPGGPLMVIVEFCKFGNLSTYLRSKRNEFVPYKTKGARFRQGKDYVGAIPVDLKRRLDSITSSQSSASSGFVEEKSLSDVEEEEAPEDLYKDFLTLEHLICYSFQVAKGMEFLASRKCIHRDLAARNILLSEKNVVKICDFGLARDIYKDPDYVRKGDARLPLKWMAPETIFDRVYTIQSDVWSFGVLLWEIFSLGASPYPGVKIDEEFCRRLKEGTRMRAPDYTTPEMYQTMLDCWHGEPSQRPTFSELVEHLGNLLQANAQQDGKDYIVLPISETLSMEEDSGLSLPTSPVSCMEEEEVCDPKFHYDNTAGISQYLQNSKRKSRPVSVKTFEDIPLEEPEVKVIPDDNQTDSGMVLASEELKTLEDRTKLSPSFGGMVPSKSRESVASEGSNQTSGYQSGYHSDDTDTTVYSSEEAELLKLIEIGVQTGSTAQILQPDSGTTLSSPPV

Row | Molecule | Inhibition of CNV progression (CNV progression; 3 nmol/eye) | IC50 (VEGFR2 (KDR)) | Inhibition of CNV progression (CNV progression; 10 nmol/eye) | inhibition of the leakage of fluorescein (vitreous fluorescein concentration) [1]
1 | 1-((2-(7-(4-Isopropylaminocarbonylamino-2-fluorophenoxy)thieno[3,2-b]pyrid methyl-1H-imidazol-5-yl)methyl)-3-isopropyl-1-(2-methoxyethyl)urea [Compound 192] | B (≧40% to <60% inhibition) | 0.05 to 0.1 µM | – | –
2 | CCNC(=O)N(CCOC)Cc1ccc(-c2cc3nccc(Oc4ccc(NC(=O)NC5CC5)cc4F)c3s2)nc1 [Compound 2, N-[3-((6-(7-(4-(3-cyclopropylureido)-2-fluorophenoxy)thieno[3,2-b]pyridin-2-yl)pyridin-3-yl)methyl)]-N-(1-ethyl)-N-[3-(2-methoxyethyl)]urea] | B (≧40% to <60% inhibition) | < 0.05 µM | A (greater than or equal to 60% inhibition) | –
3 | COCCN(C=O)Cc1ccc(-c2cc3nccc(Oc4ccc(NC(=O)NC5CC5)cc4F)c3s2)nc1 [Compound 6, N-((6-(7-(4-(3-cyclopropylureido)-2-fluorophenoxy)thieno[3,2-b]pyridin-2-yl)pyridin-3-yl)methyl)-N-(2-methoxyethyl)formamide] | B (≧40% to <60% inhibition) | < 0.05 µM | A (greater than or equal to 60% inhibition) | –
4 | COCCN(Cc1ccc(-c2cc3nccc(Oc4ccc(NC(=O)NC5CC5)c(F)c4F)c3s2)nc1)C(C)=O [Compound 26, N-((6-(7-(4-(3-cyclopropylureido)-2,3-difluorophenoxy)thieno[3,2-b]pyridin-2-yl)-pyridin-3-yl)methyl)-N-(2-methoxyethyl)acetamide] | B (≧40% to <60% inhibition) | < 0.05 µM | A (greater than or equal to 60% inhibition) | significant inhibition
5 | O=C(Nc1ccc(Oc2ccnc3cc(-c4ccc(CN5CCN(C(=O)CO)CC5)cn4)sc23)c(F)c1)NC1CC1 [Compound 74, 1-cyclopropyl-3-(3-fluoro-4-(2-(5-((4-(2-hydroxyacetyl)piperazin-1-yl)methyl)pyridin-2-yl)thieno[3,2-b]pyridin-7-yloxy)phenyl)urea] | A (greater than or equal to 60% inhibition) | < 0.05 µM | A (greater than or equal to 60% inhibition) | significant inhibition
6 | CC(C)[C@H](N)C(=O)OCC(=O)N1CCN(Cc2ccc(-c3cc4nccc(Oc5ccc(NC(=O)NC6CC6)cc5F)c4s3)nc2)CC1 [Compound 80, (S)-2-(4-((6-(7-(4-(3-cyclopropylureido)-2-fluorophenoxy)thieno[3,2-b]pyridin-2-yl)pyridin-3-yl)methyl)piperazin-1-yl)-2-oxoethyl 2-amino-3-methylbutanoate] | – | < 0.05 µM | – | –
7 | CS(=O)(=O)CCNCc1ccc(-c2cc3nccc(Oc4ccc(NC(=O)NC5CC5)cc4F)c3s2)nc1 [Compound 100, 1-cyclopropyl-3-(3-fluoro-4-(2-(5-((2-(methylsulfonyl)ethylamino)methyl)pyridin-2-yl)thieno[3,2-b]pyridin-7-yloxy)phenyl)urea] | – | < 0.05 µM | – | –
8 | CN(CCO)CCn1cc(-c2cc3nccc(Oc4ccc(NC(=O)NC5CC5)cc4F)c3s2)cn1 [Compound 151, 1-cyclopropyl-3-(3-fluoro-4-(2-(1-(2-((2-hydroxyethyl)(methyl)amino)ethyl)-1H-pyrazol-4-yl)thieno[3,2-b]pyridin-7-yloxy)phenyl)urea] | – | < 0.05 µM | – | –
9 | COCCN(Cc1cnc(-c2cc3nccc(Oc4ccc(NC(=O)NC5CC5)cc4F)c3s2)n1C)C(=O)CO [Compound 209, N-((2-(7-(4-(3-cyclopropylureido)-2-fluorophenoxy)thieno[3,2-b]pyridin-2-yl)-1-methyl-1H-imidazol-5-yl)methyl)-2-hydroxy-N-(2-methoxyethyl)acetamide] | – | < 0.05 µM | – | –
10 | CN1CCN(C2CCN(C(=O)c3ccc(-c4cc5nccc(Oc6ccc(NC(=O)NC7CC7)cc6F)c5s4)nc3)CC2)CC1 [Compound 234, 1-Cyclopropyl-3-(3-fluoro-4-(2-(5-(4-(4-methylpiperazin-1-yl)piperidine-1-carbonyl)pyridin-2-yl)thieno[3,2-b]pyridin-7-yloxy)phenyl)urea] | B (≧40% to <60% inhibition) | < 0.05 µM | – | –
11 | O=C(Nc1ccc(Oc2ccnc3cc(-c4cn(CCN5CCOCC5)cn4)sc23)c(F)c1)NC1CC1 [Compound 265] | – | < 0.05 µM | – | –
